Assay results published in ChEMBL document CHEMBL1201862, “PubChem BioAssay data set” (2004).
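Tested at 5 concentrations; 48 h exposure; 96-well plates; endpoints linearly interpolated, else capped at highest concentration. Here, GI50 denotes the concentration required for 50% inhibition of growth.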 Activity calls are given as the source filed them. No stated cut-off is given here; in the data, active = GI50 up to about 1.1 µM and inactive = higher.

How the values were obtained:
Assay in all cases: inhibition of tumour cell growth, NCI panel, 48 h
T47D = test system: T47D
CCRF-CEM = test system: CCRF-CEM
EKVX = test system: EKVX
IGROV-1 = test system: IGROV-1
HOP-92 = test system: HOP-92
CAKI-1 = test system: CAKI-1
KM12 = test system: KM12
MDA-N = test system: MDA-N
A498 = test system: A498
MDA-MB-231 = test system: MDA-MB-231
SF-268 = test system: SF-268
SF-295 = test system: SF-295
SR = test system: SR
NCI-H23 = test system: NCI-H23
MDA-MB-435 = test system: MDA-MB-435
OVCAR-5 = test system: OVCAR-5
RXF 393 = test system: RXF 393
A549 = test system: A549
NCI-H226 = test system: NCI-H226
MCF7 = test system: MCF7
NCI-H522 = test system: NCI-H522
NCI/ADR-RES = test system: NCI/ADR-RES
TK-10 = test system: TK-10
HOP-62 = test system: HOP-62
Malme-3M = test system: Malme-3M
ACHN = test system: ACHN
786-0 = test system: 786-0
M14 = test system: M14
HCT-116 = test system: HCT-116
OVCAR-3 = test system: OVCAR-3
HCC 2998 = test system: HCC 2998
SK-MEL-28 = test system: SK-MEL-28
UO-31 = test system: UO-31
LOX IMVI = test system: LOX IMVI
BT-549 = test system: BT-549
UACC-62 = test system: UACC-62
UACC-257 = test system: UACC-257
PC-3 = test system: PC-3
DU-145 = test system: DU-145
COLO 205 = test system: COLO 205
OVCAR-4 = test system: OVCAR-4
SN12C = test system: SN12C
Hs-578T = test system: Hs-578T
SW-620 = test system: SW-620
RPMI-8226 = test system: RPMI-8226
NCI-H460 = test system: NCI-H460
HT-29 = test system: HT-29
K562 = test system: K562
OVCAR-8 = test system: OVCAR-8
HL-60 = test system: HL-60
SNB-75 = test system: SNB-75
U-251 = test system: U-251
SK-MEL-2 = test system: SK-MEL-2
SK-MEL-5 = test system: SK-MEL-5
SF-539 = test system: SF-539
MOLT-4 = test system: MOLT-4
SK-OV-3 = test system: SK-OV-3
HCT-15 = test system: HCT-15
SNB-19 = test system: SNB-19

## COc1cccc2cc(C(C)=O)c(=O)oc12
T47D
  GI50: 12.6 µM (inactive)
CCRF-CEM
  GI50: > 100 µM (inactive)
EKVX
  GI50: > 100 µM (inactive)
IGROV-1
  GI50: > 100 µM (inactive)
HOP-92
  GI50: > 100 µM (inactive)
CAKI-1
  GI50: > 100 µM (inactive)
KM12
  GI50: > 100 µM (inactive)
MDA-N
  GI50: > 100 µM (inactive)
A498
  GI50: > 100 µM (inactive)
MDA-MB-231
  GI50: > 100 µM (inactive)
SF-268
  GI50: > 100 µM (inactive)
SF-295
  GI50: > 100 µM (inactive)
SR
  GI50: > 100 µM (inactive)
NCI-H23
  GI50: > 100 µM (inactive)
MDA-MB-435
  GI50: > 100 µM (inactive)
OVCAR-5
  GI50: > 100 µM (inactive)
RXF 393
  GI50: > 100 µM (inactive)
A549
  GI50: > 100 µM (inactive)
NCI-H226
  GI50: > 100 µM (inactive)
MCF7
  GI50: > 100 µM (inactive)
NCI-H522
  GI50: > 100 µM (inactive)
NCI/ADR-RES
  GI50: > 100 µM (inactive)
TK-10
  GI50: > 100 µM (inactive)
HOP-62
  GI50: > 100 µM (inactive)
Malme-3M
  GI50: 52.8 µM (inactive)
ACHN
  GI50: > 100 µM (inactive)
786-0
  GI50: > 100 µM (inactive)
M14
  GI50: > 100 µM (inactive)
HCT-116
  GI50: > 100 µM (inactive)
OVCAR-3
  GI50: > 100 µM (inactive)
HCC 2998
  GI50: > 100 µM (inactive)
SK-MEL-28
  GI50: > 100 µM (inactive)
UO-31
  GI50: > 100 µM (inactive)
LOX IMVI
  GI50: > 100 µM (inactive)
BT-549
  GI50: > 100 µM (inactive)
UACC-62
  GI50: > 100 µM (inactive)
UACC-257
  GI50: > 100 µM (inactive)
PC-3
  GI50: > 100 µM (inactive)
DU-145
  GI50: > 100 µM (inactive)
COLO 205
  GI50: > 100 µM (inactive)
OVCAR-4
  GI50: > 100 µM (inactive)
SN12C
  GI50: > 100 µM (inactive)
Hs-578T
  GI50: > 100 µM (inactive)
SW-620
  GI50: > 100 µM (inactive)
RPMI-8226
  GI50: > 100 µM (inactive)
NCI-H460
  GI50: > 100 µM (inactive)
HT-29
  GI50: > 100 µM (inactive)
K562
  GI50: > 100 µM (inactive)
OVCAR-8
  GI50: > 100 µM (inactive)
HL-60
  GI50: > 100 µM (inactive)
SNB-75
  GI50: > 100 µM (inactive)
U-251
  GI50: > 100 µM (inactive)
SK-MEL-2
  GI50: > 100 µM (inactive)
SK-MEL-5
  GI50: > 100 µM (inactive)
SF-539
  GI50: > 100 µM (inactive)
MOLT-4
  GI50: > 100 µM (inactive)

## COC(=O)/C=C\C(C#N)(C#N)/N=C/c1ccc(OC)cc1
T47D
  GI50: 1.54 µM (inactive)
CCRF-CEM
  GI50: 0.162 µM (active)
EKVX
  GI50: 16.6 µM (inactive)
IGROV-1
  GI50: 15 µM (inactive)
HOP-92
  GI50: 1.92 µM (inactive)
CAKI-1
  GI50: 2.08 µM (inactive)
KM12
  GI50: 16.7 µM (inactive)
MDA-N
  GI50: 4.75 µM (inactive)
SK-OV-3
  GI50: 17.3 µM (inactive)
A498
  GI50: 18.5 µM (inactive)
MDA-MB-231
  GI50: 18 µM (inactive)
SF-268
  GI50: 4.94 µM (inactive)
SF-295
  GI50: 25.1 µM (inactive)
SR
  GI50: 0.681 µM (active)
NCI-H23
  GI50: 8.95 µM (inactive)
MDA-MB-435
  GI50: 2.33 µM (inactive)
OVCAR-5
  GI50: 21.7 µM (inactive)
RXF 393
  GI50: 2.19 µM (inactive)
A549
  GI50: 19.5 µM (inactive)
NCI-H226
  GI50: 10.8 µM (inactive)
MCF7
  GI50: 2.73 µM (inactive)
NCI-H522
  GI50: 0.615 µM (active)
NCI/ADR-RES
  GI50: 2.73 µM (inactive)
TK-10
  GI50: 2.63 µM (inactive)
HOP-62
  GI50: 17.7 µM (inactive)
Malme-3M
  GI50: 1.73 µM (inactive)
ACHN
  GI50: 2.82 µM (inactive)
786-0
  GI50: 1.99 µM (inactive)
M14
  GI50: 3.08 µM (inactive)
HCT-116
  GI50: 1.84 µM (inactive)
OVCAR-3
  GI50: 2.72 µM (inactive)
HCC 2998
  GI50: 20.6 µM (inactive)
SK-MEL-28
  GI50: 2.7 µM (inactive)
UO-31
  GI50: 2.25 µM (inactive)
LOX IMVI
  GI50: 3.12 µM (inactive)
BT-549
  GI50: 5.04 µM (inactive)
UACC-62
  GI50: 15.9 µM (inactive)
UACC-257
  GI50: 4.83 µM (inactive)
PC-3
  GI50: 7.4 µM (inactive)
DU-145
  GI50: 7.01 µM (inactive)
COLO 205
  GI50: 1.65 µM (inactive)
OVCAR-4
  GI50: 1.92 µM (inactive)
SN12C
  GI50: 15.3 µM (inactive)
Hs-578T
  GI50: 10 µM (inactive)
SW-620
  GI50: 1.99 µM (inactive)
HCT-15
  GI50: 3.85 µM
RPMI-8226
  GI50: 0.48 µM (active)
NCI-H460
  GI50: 19.5 µM (inactive)
HT-29
  GI50: 5.31 µM (inactive)
K562
  GI50: 3.41 µM (inactive)
OVCAR-8
  GI50: 2.89 µM (inactive)
HL-60
  GI50: 1.45 µM (inactive)
SNB-75
  GI50: 16.4 µM (inactive)
U-251
  GI50: 17.9 µM (inactive)
SK-MEL-2
  GI50: 18.3 µM (inactive)
SNB-19
  GI50: > 44.7 µM (inactive)
SK-MEL-5
  GI50: 17.8 µM (inactive)
SF-539
  GI50: 4.99 µM (inactive)
MOLT-4
  GI50: 1.06 µM (active)
